{
  "source": "patent US12527782B2",
  "about": "“Use of hexokinase 2/mitochondria-detaching compounds for treating hexokinase-2 (HK2)-expressing cancers” (Vidac Pharma Ltd., priority 2016, dated 2026)",
  "key": {"[1]": {"target": "T1, HK1 association with the mitochondria (Homo sapiens, UniProt P19367)", "T1 construct": "human skin SCC A431 cells (which express both HK1 and HK2); endogenous in cells; host or cells: A431", "T1 sequence (P19367 whole entry)": "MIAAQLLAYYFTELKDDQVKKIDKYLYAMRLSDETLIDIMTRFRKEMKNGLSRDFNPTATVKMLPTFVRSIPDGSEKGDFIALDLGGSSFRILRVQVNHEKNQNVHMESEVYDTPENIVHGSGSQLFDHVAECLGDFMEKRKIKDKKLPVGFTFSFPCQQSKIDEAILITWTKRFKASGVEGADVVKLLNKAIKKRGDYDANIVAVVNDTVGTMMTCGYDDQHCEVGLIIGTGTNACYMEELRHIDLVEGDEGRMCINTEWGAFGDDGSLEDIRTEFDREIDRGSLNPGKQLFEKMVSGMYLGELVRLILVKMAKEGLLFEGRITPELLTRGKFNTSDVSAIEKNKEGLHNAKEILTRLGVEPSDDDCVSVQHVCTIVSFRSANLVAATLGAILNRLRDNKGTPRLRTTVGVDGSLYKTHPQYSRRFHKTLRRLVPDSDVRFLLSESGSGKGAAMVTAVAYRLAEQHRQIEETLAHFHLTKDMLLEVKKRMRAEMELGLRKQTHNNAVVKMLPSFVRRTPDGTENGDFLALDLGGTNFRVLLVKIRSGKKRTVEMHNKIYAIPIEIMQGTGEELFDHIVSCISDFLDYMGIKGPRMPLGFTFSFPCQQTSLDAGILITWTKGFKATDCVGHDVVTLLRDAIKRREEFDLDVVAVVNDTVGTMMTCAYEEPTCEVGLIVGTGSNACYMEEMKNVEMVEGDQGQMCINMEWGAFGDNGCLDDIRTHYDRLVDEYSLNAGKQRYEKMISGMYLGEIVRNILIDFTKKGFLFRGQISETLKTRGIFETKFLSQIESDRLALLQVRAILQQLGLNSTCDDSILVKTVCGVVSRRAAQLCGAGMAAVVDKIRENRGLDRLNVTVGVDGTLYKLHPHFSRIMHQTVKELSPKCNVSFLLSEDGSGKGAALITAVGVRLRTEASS", "experiment": "Western Blot of mitochondrial fraction, HK1 in A431 cells", "format": "cell-based", "details": "similar experimental setup, data not shown", "experimental": "A431 cells were treated for 2 hours at 37° C. with various concentrations of Formula C in medium without FCS and 2 mM L-Gln. Mitochondria were isolated using Mitochondria Isolation Kit (Thermo Fisher Scientific, Rockford, IL) followed by a WB. Semi-quantification of the WB was done with Imagequant TL software v8.1 (GE healthcare Life Sciences, Little Chalfont, United Kingdom). TIM22 was used as a loading control for mitochondria. Cyclophilin A (PPIA) was used as a cytosolic marker.\n(§1) Antibodies used: anti-rabbit HK1 (C-20245) and HK2 (C-28765) from CST (Danvers, MA), anti-rabbit PPIA (ab41684, Abcam), anti-rabbit TIM22 (14927-1-AP, Proteintech Group Inc., Rosemont, IL), anti-rabbit Cytochrome C (PA1118, Boster Biological Technology, Pleasanton, CA). Detection was performed using secondary antibodies: peroxidase-conjugated Affinipure goat anti-rabbit IgG (H+L) or goat anti-mouse IgG (H+L) (111-035-003 and 115-035-003, Jackson ImmunoResearch, West Grove, PA), and development was using the ECL kit WesternBright™ ECL (K-12045-D10, Advansta, Menlo Park, California, USA)."}, "[2]": {"test_system": "Leukemia (AML) LEXFAM MV4-11", "experiment": "CFA, LEXFAM MV4-11", "format": "cell-based, human", "details": "Cell line/CFA", "experimental": "(§2) CFA was performed by Charles River Laboratories (Freiburg, Germany) in 96-well plate format according to a modified two-layer soft agar assay. The origin of the tumor xenografts has been described (Fiebig et al. 1989, incorporated herein by reference). The list of tumors used in this study is detailed in Table 1."}, "AK lesions": {"test_system": "AK lesions", "experiment": "Phase 2a in subjects with actinic keratosis, efficacy (lesion count)", "format": "in vivo, human", "experimental": "The Phase 2 clinical trial was a multiple-center randomized, double-blind, placebo-controlled, parallel-cohorts study to evaluate the efficacy, safety, tolerability, and pharmacokinetics of once-daily application of topical Formula C ointment (QD 200 mg) for 28 days in subjects with actinic keratosis. Subjects were followed for one or two months after they completed treatment (through day 56 or day 84). The primary and exploratory efficacy endpoints for the study were reduction in the number of lesions on days 56 and 84, respectively. Subjects were randomly assigned in a double-blind fashion to one of three parallel treatment cohorts (5%, or 10% Formula C, or placebo) at a ratio of 1:1:1. To qualify for the study, subjects aged 18 (inclusive) or older must have had 4-8 discrete Grade 1 or 2 AK lesions within a 25-centimeter squared area of the skin of their scalp or face. The study enrolled 93 subjects in the US and Israel."}, "[3]": {"test_system": "HaCaT normal immortal keratonocytes", "experiment": "XTT cell viability assay, HaCaT", "format": "cell-based, human", "details": "Cell line/XTT, 72 hr", "experimental": "(§3) A431 (human skin SCC), HT-297.T (human AK), and HaCaT transformed normal keratinocyte cell lines were from ATCC (Manassas, VA) and were maintained in DMEM supplemented with 10% FCS, 4 mM L-Gln, 1 mM sodium pyruvate, 100 U/mL penicillin, 1 μg/mL streptomycin. Human HK1 and HK2 plasmids were purchased from Addgene (Cambridge, MA) and were purified from E. Coli. VDAC1 was purified from sheep liver mitochondria as described (Arbel et al. 2012, incorporated herein by reference). Human skin tissue microarray (SK208 and SK 805) were purchased from US Biomax Inc. (Rockville, MD).\n(§4) For XTT assays, cells were plated in 96-well plates (5,000 cells per well) for 24 hours. Cells were then incubated with different concentrations of Formula C in triplicates for 72 hr in DMEM supplemented with 0.5% FCS and 5 mM Glucose. Cell viability was evaluated using 2,3-bis-(2-methoxy-4-nitro-5-sulfophenyl)-2H-tetrazolium-5-carboxanilide (XTT)-based colorimetric assay kit (Biological Industries Ltd., Kibbutz Beit-Haemek, Israel). The optical density was measured by an Infinite 200 ELISA reader at 450 nm and reference was measured at 630 nm (Tecan, Männedorf, Switzerland)."}, "CTCL cell line MJ": {"test_system": "CTCL cell line MJ", "experiment": "PrestoBlue cell viability, MJ", "format": "cell-based, human", "details": "72 hours, read-out: absolute IC50, cell viability", "experimental": "Cutaneous T-cell lymphoma (CTCL) cell lines MJ and Hut78 were purchased from ATCC (CRL-8294, and TIB-161, respectively). Cells were grown in Iscove's Modified Dulbecco's Media supplemented with 2 mM L-glutamine, 10% fetal bovine serum, 100 U/mL of penicillin and 0.1 mg/mL of streptomycin.\nCells (1-2×10^4) were seeded in 96-well plates and treated with Formula C. Cell viability was determined 72 hours later using PrestoBlue reagent according to manufacturer's instruction (Life Technologies). The percentage of viability was expressed according to the fluorescence emitted by Formula C-treated cells compared to DMSO-treated control cells. The florescence emission values at 590 nm were measured with the plate-reader Spark 10M—multimode microplate reader (TECAN)."}, "Skin SCC SKXF 1834": {"test_system": "Skin SCC SKXF 1834", "experiment": "CFA, SKXF 1834", "format": "cell-based, human", "details": "PDX/CFA", "experimental": "as §2"}, "[4]": {"test_system": "Leukemia (BCLL) LEXFCM K-562", "experiment": "CFA, LEXFCM K-562", "format": "cell-based, human", "details": "Cell line/CFA", "experimental": "as §2"}, "[5]": {"test_system": "Leukemia (AML) LEXFAM PL-21", "experiment": "CFA, LEXFAM PL-21", "format": "cell-based, human", "details": "Cell line/CFA", "experimental": "as §2"}, "Melanoma MEXF 535": {"test_system": "Melanoma MEXF 535", "experiment": "CFA, MEXF 535", "format": "cell-based, human", "details": "PDX/CFA", "experimental": "as §2"}, "A431 cells": {"test_system": "A431 cells", "experiment": "Apoptosis: cytochrome C in mitochondrial fraction (WB), A431 cells", "format": "cell-based, human", "details": "within 2 hours of treatment, WB semi-quantification", "experimental": "as §1\nApoptosis induction was determined by semi-quantification of cytochrome C levels in the mitochondrial fraction analyzed by WB, following 2 hours of treatment with Formula C in A431 cells. Cleaved caspase-3 levels were analyzed following 6 hours of Formula C treatment in A431 cells, using PathScan® Cleaved Caspase-3 Sandwich ELISA kit (CST, Danvers, MA)."}, "Skin SCC SXFS 627": {"test_system": "Skin SCC SXFS 627", "experiment": "CFA, SXFS 627", "format": "cell-based, human", "details": "PDX/CFA", "experimental": "as §2"}, "[6]": {"test_system": "Pancreas PAXF Mia-Pa-Ca-2", "experiment": "CFA, PAXF Mia-Pa-Ca-2", "format": "cell-based, human", "details": "Cell line/CFA", "experimental": "as §2"}, "A431 Skin SCC cells": {"test_system": "A431 Skin SCC cells", "experiment": "XTT cell viability assay, A431", "format": "cell-based, human", "details": "Cell line/XTT, 72 hr", "experimental": "as §3, §4"}, "[7]": {"test_system": "Leukemia (AML) LEXFAM KG-1", "experiment": "CFA, LEXFAM KG-1", "format": "cell-based, human", "details": "Cell line/CFA", "experimental": "as §2"}, "[8]": {"test_system": "Cutanous T cell lymphoma HH", "experiment": "XTT cell viability assay, HH", "format": "cell-based, human", "details": "Cell line/XTT", "experimental": "as §4"}},
  "note": "pIC50: −log10 of the molar value.",
  "data": [
    {"compound": "CC/C=C\\CC1C(=O)CCC1CC(=O)Oc1cccc2cccnc12", "note": "(stereo not drawn) [Formula C]", "values": [
      {"measurement": "HK1 association with the mitochondria", "setting": "[1]", "value": "not affected"},
      {"measurement": "pIC50", "setting": "[2]", "value": 5.92},
      {"measurement": "mean reduction in total lesion count from baseline on Day 56", "setting": "AK lesions; ITT-face subgroup, 10% ointment, adjusted to age and gender, P=0.023 vs Placebo", "value": "38.8%±36.4%"},
      {"measurement": "median reduction in total lesion count", "setting": "AK lesions; PP-face subgroup, 10% ointment", "value": 50.0, "unit": "%"},
      {"measurement": "mean reduction in total lesion count from baseline on Day 56", "setting": "AK lesions; full ITT population (face or scalp), 10% ointment QD 200 mg 28 days, adjusted by site, age, gender, treatment field location", "value": "32.1%±34.1%"},
      {"measurement": "median reduction in total lesion count from baseline on Day 56", "setting": "AK lesions; full Per Protocol (PP) population, 10% ointment", "value": 25.0, "unit": "%"},
      {"measurement": "pIC50", "setting": "[3]", "value": 5.47},
      {"measurement": "pIC50", "setting": "CTCL cell line MJ", "value": 5.75},
      {"measurement": "pIC50", "setting": "Skin SCC SKXF 1834", "value": 6.13},
      {"measurement": "pIC50", "setting": "[4]", "value": 5.63},
      {"measurement": "pIC50", "setting": "[5]", "value": 5.76},
      {"measurement": "pIC50", "setting": "Melanoma MEXF 535", "value": 6.27},
      {"measurement": "cytochrome C levels in the mitochondrial fraction", "setting": "A431 cells", "value": "reduction of cytochrome C levels"},
      {"measurement": "pIC50", "setting": "Skin SCC SXFS 627", "value": 5.81},
      {"measurement": "pIC50", "setting": "[6]", "value": 5.71},
      {"measurement": "pIC50", "setting": "A431 Skin SCC cells", "value": 7.85},
      {"measurement": "pIC50", "setting": "[7]", "value": 5.94},
      {"measurement": "pIC50", "setting": "[8]", "value": 6.22}
    ]}
  ]
}
